In ChEMBL document CHEMBL1255508, “Neopetrosiamine A, biologically active bis-piperidine alkaloid from the Caribbean sea sponge Neopetrosia proxima” (Bioorg Med Chem Lett, 2010) one finds IC50 and MIC data, which are given here for one compound.

Molecules are shown by their SMILES. ≈ marks a conversion by molar mass, not a printed value.

In one test the test system is Plasmodium falciparum. Kind of test: Antiplasmodial activity against Plasmodium falciparum. The class given is functional, organism-based.
A further test relates to Malme-3M. The test is described as follows: […] activity against human MALME-3M cells. The class given is functional, cell-based.
The subject of test [1] is Mycobacterium tuberculosis. The test is described as follows: Antimycobacterial activity against Mycobacterium tuberculosis H37Rv by microplate alamar blue assay. Format: functional.
The next test concerns Vero. Kind of test: Cytotoxicity against african green monkey Vero cells. Format: cell-based. Conditions: Chlorocebus sabaeus.
The subject of another test is CCRF-CEM. Kind of test: […] activity against human CCRF-CEM cells. The class given is functional, cell-based.
Another test deals with MCF7. The test is described as follows: […] activity against human MCF7 cells. The class given is functional, cell-based.

Broadly, the IC50 is the concentration that inhibits the measured activity by half. The term MIC denotes the lowest concentration found to suppress growth. For `C1=C\CCCCN2CC[C@@H]3[C@@H](CCCC/C=C\CCCCN4C[C@H](CCCC/1)C[C@H]3C4)C2` [NEOPETROSIAMINE A], the IC50 with Plasmodium falciparum is 2300 nM; in the test with Malme-3M it was 1500 nM; with Vero, 42.4 µg/mL (≈ 96.2 µM); with CCRF-CEM it was 2000 nM; with MCF7, 3.5 µM. The compound also came in with an MIC in test [1] of 7.5 µg/mL (≈ 17 µM).
